Entries after “also recorded” stand apart in the source; their conditions may differ.
Experiments:
Assay type in all cases: physicochemical
[1] = Test 1 stability data under 25° C. for 6 months (liquid chromatography); settings: for Major peak: 25° C., in % (unit assumed); for chemical stability compared with crystal form I, crystal form II and the semihydrate crystal form: normal temperature and cold storage conditions
Protocol: (§1) Liquid chromatography test conditions are: chromatographic column is Merck Purospher®STAR RP-18 endcapped 250×4.6 mm, 5 μm; mobile phase A: acetonitrile, mobile phase B: 4 ml phosphoric acid added in 1 L water, the pH is adjusted to 3.5 by triethylamine; detecting wavelength: 310 nm; flow rate: 1 ml/min; sample load: 10 μl; column temperature: 30° C., liquid chromatography conditions are shown in table 4:
(§2) The inventor has tested the chemical stability of the crystal form M and crystal form N under normal temperature, cold storage and freezing conditions and compared the chemical stability with crystal form I, crystal form II and semihydrate crystal form, see tests 1-3. In the tests, crystal form I, crystal form II and semihydrate crystal form are all prepared according to the method disclosed in patent document U.S. Pat. No. 7,932,273B2.

[2] = Test 2 stability data under 5° C. for 6 months (liquid chromatography); settings: for Major peak: 5° C., in % (unit assumed); for storage stability: cold storage and freezing conditions
Protocol: as §1, §2
Test 2 stability data under 5° C. for 6 months (see table 6)

[3] = Test 3 stability data under −20° C. for 6 months (liquid chromatography); settings: in % (unit assumed)
Protocol: as §1, §2
Test 3 stability data under −20° C. for 6 months (see table 7)

[4] = Crystal form of samples after 6 months stability tests under different temperature; settings: 6 months under different temperature
[5] = Test 4 stability of crystal form N in 95% ethanol solution (XRD); settings: stirred for 3, 4 and 5 hours
Protocol: In the following examples and tests, the powder X-ray diffractometer and the test conditions are: X-ray diffractomer model Rigaku D/max-2200 Cu target; operation method: scan rate 4°/min, scan width 0.01°.
Test 4 the stability in formulation of crystal form N
This indicate that the crystal form N is stable in the 95% ethanol solution, therefore, it has great stability in the related formulation processes.

| SMILES | Major peak ([1]; 0 month) | Major peak ([1]; 1 month) | Major peak ([1]; 2 months) | Major peak ([1]; 3 months) | Major peak ([1]; 4 months) | Major peak ([1]; 5 months) | Major peak ([1]; 6 months) | Major peak ([2]; 0 month) | Major peak ([2]; 1 month) | Major peak ([2]; 2 months) | Major peak ([2]; 3 months) | Major peak ([2]; 4 months) | Major peak ([2]; 5 months) | Major peak ([2]; 6 months) | Major peak ([3]; 1 month) | Major peak ([3]; 2 months) | Major peak ([3]; 3 months) | Major peak ([3]; 4 months) | Major peak ([3]; 5 months) | Major peak ([3]; 6 months) | other results |
| --- | --- | --- | --- | --- | --- | --- | --- | --- | --- | --- | --- | --- | --- | --- | --- | --- | --- | --- | --- | --- | --- |
| CCCCCCOC(=O)/N=C(/N)c1ccc(NCc2nc3cc(C(=O)N(CCC(=O)OCC)c4ccccn4)ccc3n2C)cc1.CS(=O)(=O)O [Crystal form M, 3-[(2-{[4-(hexaoxycarbonylamino-imino-methyl)-phenylamino]-methyl}-1-methyl-1H-benzimidazole-5-carbonyl)-pyridine-2-yl-amino-]-ethyl propionate-mesylate] | 99.711 | 99.632 | 99.614 | 99.595 | 99.582 | 99.574 | 99.541 | 99.654 | 99.650 | 99.648 | 99.651 | 99.649 | 99.649 | 99.648 | 99.722 | 99.728 | 99.737 | 99.737 | 99.739 | 99.737 | chemical stability compared with crystal form I, crystal form II and the semihydrate crystal form [1]: better chemical stability; storage stability [2]: can be stored stable for a long time; crystal form of samples after stability tests [4]: not changed |
| CCCCCCOC(=O)/N=C(/N)c1ccc(NCc2nc3cc(C(=O)N(CCC(=O)OCC)c4ccccn4)ccc3n2C)cc1.CS(=O)(=O)O [Crystal form N, 3-[(2-{[4-(hexaoxycarbonylamino-imino-methyl)-phenylamino]-methyl}-1-methyl-1H-benzimidazole-5-carbonyl)-pyridine-2-yl-amino-]-ethyl propionate-mesylate] | 99.701 | 99.631 | 99.618 | 99.601 | 99.580 | 99.572 | 99.536 | 99.660 | 99.659 | 99.655 | 99.652 | 99.650 | 99.650 | 99.649 | 99.723 | 99.726 | 99.734 | 99.733 | 99.734 | 99.733 | chemical stability compared with crystal form I, crystal form II and the semihydrate crystal form [1]: better chemical stability; storage stability [2]: can be stored stable for a long time; stability in 95% ethanol solution (X-Ray powder diffractograms) [5]: not changed within 5 hours; also recorded: very good stability; crystal form of samples after stability tests [4]: not changed |
| CCCCCCOC(=O)/N=C(/N)c1ccc(NCc2nc3cc(C(=O)N(CCC(=O)OCC)c4ccccn4)ccc3n2C)cc1.CS(=O)(=O)O [Semihydrate crystal form, 3-[(2-{[4-(hexaoxycarbonylamino-imino-methyl)-phenylamino]-methyl}-1-methyl-1H-benzimidazole-5-carbonyl)-pyridine-2-yl-amino-]-ethyl propionate-mesylate] | 99.847 | 99.707 | 99.631 | 99.587 | 99.447 | 99.334 | 99.254 | 99.828 | 99.827 | 99.830 | 99.826 | 99.831 | 99.827 | 99.832 | 99.834 | 99.833 | 99.836 | 99.839 | 99.840 | 99.836 | – |
| CCCCCCOC(=O)/N=C(/N)c1ccc(NCc2nc3cc(C(=O)N(CCC(=O)OCC)c4ccccn4)ccc3n2C)cc1.CS(=O)(=O)O [Crystal form I, 3-[(2-{[4-(hexaoxycarbonylamino-imino-methyl)-phenylamino]-methyl}-1-methyl-1H-benzimidazole-5-carbonyl)-pyridine-2-yl-amino-]-ethyl propionate-mesylate] | 99.690 | 99.604 | 99.574 | 99.468 | 99.308 | 99.309 | 99.220 | 99.676 | 99.655 | 99.651 | 99.652 | 99.651 | 99.649 | 99.643 | 99.693 | 99.694 | 99.690 | 99.692 | 99.691 | 99.692 | – |
| CCCCCCOC(=O)/N=C(/N)c1ccc(NCc2nc3cc(C(=O)N(CCC(=O)OCC)c4ccccn4)ccc3n2C)cc1.CS(=O)(=O)O [Crystal form II, 3-[(2-{[4-(hexaoxycarbonylamino-imino-methyl)-phenylamino]-methyl}-1-methyl-1H-benzimidazole-5-carbonyl)-pyridine-2-yl-amino-]-ethyl propionate-mesylate] | 99.646 | 99.493 | 99.408 | 99.290 | 99.069 | 99.029 | 98.911 | 99.631 | 99.630 | 99.643 | 99.640 | 99.641 | 99.598 | 99.592 | 99.630 | 99.633 | 99.634 | 99.630 | 99.632 | 99.632 | – |
